Results on 13 compounds are retold here after patent publication US20240116985A1, “STAPLED PEPTIDES AND METHODS THEREOF” (priority 2020, published 2024).

One data set can be described thus: CHI Log D procedure. The following applies: for CHI Log D: pH 7.4; for logD: pH 7.4, CHI Log D. Format: physicochemical.
The nature of a further data set: Solubility in PBS. Format: physicochemical. The method, boiled down:
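Read-out is the HPLC peak area of the supernatant from ultracentrifuged PBS solution, scaled against a 50 μM peptide DMSO injection; value reported as [(PBS area)/(DMSO area)]*50 uM.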

≈ marks a conversion by molar mass, not a printed value. Like-named read-outs stand apart in the source and are kept apart here.

By Solubility is commonly meant the concentration that dissolves in the medium under given conditions. A low value points to little dissolved substance. On to `CC[C@H](C)[C@@H]1NC(=O)[C@H](CC(=O)O)NC(=O)[C@]2(CC=CCCCC3(CCCC=CCCCCCC[C@@](C)(C(=O)N[C@@H](Cc4ccccc4)C(=O)N[C@@H](Cc4csc5ccccc45)C(=O)N4CCC[C@H]4C(N)=O)NC(=O)[C@H](CCC(N)=O)NC(=O)[C@H](Cc4ccccc4)NC(=O)[C@H](C)NC(=O)[C@H](C)NC(=O)[C@H](CCC(=O)O)NC(=O)[C@H](CC(=O)O)NC3=O)NC1=O)CCCN2C(C)=O` (stereo partly drawn) [I-637, Ac-PL3-Asp-Ile-B5-Asp-Glu-Ala-Ala-Phe-Gln-S8-Phe-BztA-Pro-NH2], for which the “CHI Log D” value in “CHI Log D procedure” is reported as 2.554. In “Solubility in PBS”, the “Solubility” value amounted to 50 µM (≈ 92.6 µg/mL).
By logD is commonly meant lipophilicity at a set pH, counting ionised and neutral species. Read a high logD as higher lipophilicity. On to `CC(=O)N1CCC[C@]12CC=CCCCC1(CCCC=CCCCOC(=O)N3CC[C@@](C(=O)N[C@@H](Cc4ccsc4)C(=O)N[C@@H](Cc4csc5ccccc45)C(=O)N[C@@H](Cc4c[nH]cn4)C(N)=O)(C3)NC(=O)[C@H](CC(N)=O)NC(=O)[C@H](Cc3ccccc3)NC(=O)[C@H](C)NC(=O)[C@H](CCCCNC(=O)Cn3cc(CNC(=O)c4ccc5c(c4)C4(OC5=O)c5ccc(O)cc5Oc5cc(O)ccc54)nn3)NC(=O)[C@H](CC(=O)O)NC(=O)[C@H](CC(=O)O)NC1=O)NC(=O)[C@H](CC(C)(C)C)NC(=O)[C@H](CC(=O)O)NC2=O` (stereo partly drawn) [I-865, Ac-PL3-Asp-Npg-B5-Asp-Asp-[FAM6Ppg][1TriAc]Lys-Ala-Phe-Asn-PyrS2-3Thi-BztA-His-NH2], for which the log distribution coefficient (logD) in “CHI Log D procedure” is 1.62. The compound further displayed a Solubility in the data set “Solubility in PBS” (Solubility (uM)) of 38 µM (≈ 94.3 µg/mL).
The corresponding values for `CC(=O)N1CCC[C@]12CC=CCCCC1(CCCC=CCCCOC(=O)N3CC[C@@](C(=O)N[C@@H](Cc4ccsc4)C(=O)N[C@@H](Cc4csc5ccccc45)C(=O)N[C@@H](CCC(N)=O)C(N)=O)(C3)NC(=O)[C@H](CC(N)=O)NC(=O)[C@H](Cc3ccccc3)NC(=O)[C@H](C)NC(=O)[C@H](CCCCNC(=O)c3ccc(-n4cc(CNC(=O)c5ccc6c(c5)C5(OC6=O)c6ccc(O)cc6Oc6cc(O)ccc65)nn4)cc3)NC(=O)[C@H](CC(C)C)NC(=O)[C@H](CC(=O)O)NC1=O)NC(=O)[C@H](CC(C)(C)C)NC(=O)[C@H](CC(=O)O)NC2=O` (stereo partly drawn) [I-867, Ac-PL3-Asp-Npg-B5-Asp-Leu-[FAM6Ppg][p1TB]Lys-Ala-Phe-Asn-PyrS2-3Thi-BztA-Gln-NH2] are 1.8 and 13 µM (≈ 32.9 µg/mL).
Turning to `CC(=O)N1CCC[C@]12CC=CCCCC1(CCCC=CCCCOC(=O)N3CC[C@@](C(=O)N[C@@H](Cc4ccsc4)C(=O)N[C@@H](Cc4csc5ccccc45)C(=O)N[C@@H](CCC(N)=O)C(N)=O)(C3)NC(=O)[C@H](CC(C)C)NC(=O)[C@H](Cc3ccccc3)NC(=O)[C@H](C)NC(=O)[C@H](CCCCNC(=O)c3ccc(-n4cc(CNC(=O)c5ccc6c(c5)C5(OC6=O)c6ccc(O)cc6Oc6cc(O)ccc65)nn4)cc3)NC(=O)[C@H](CC(C)C)NC(=O)[C@H](CC(=O)O)NC1=O)NC(=O)[C@H](CC(C)(C)C)NC(=O)[C@H](CC(=O)O)NC2=O` (stereo partly drawn) [I-868, Ac-PL3-Asp-Npg-B5-Asp-Leu-[FAM6Ppg][p1TB]Lys-Ala-Phe-Leu-PyrS2-3Thi-BztA-Gln-NH2], the logD in “CHI Log D procedure” was found to be 1.88. Moreover, in the data set “Solubility in PBS”, the “Solubility” value was 10 µM (≈ 25.3 µg/mL).
Regarding `CC(=O)N1CCC[C@]12CC=CCCCC1(CCCC=CCCCOC(=O)N3CC[C@@](C(=O)N[C@@H](Cc4ccsc4)C(=O)N[C@@H](Cc4csc5ccccc45)C(=O)N[C@@H](CCC(N)=O)C(N)=O)(C3)NC(=O)[C@H](Cc3ccccc3)NC(=O)[C@H](Cc3ccccc3)NC(=O)[C@H](C)NC(=O)[C@H](CCCCNC(=O)c3ccc(-n4cc(CNC(=O)c5ccc6c(c5)C5(OC6=O)c6ccc(O)cc6Oc6cc(O)ccc65)nn4)cc3)NC(=O)[C@H](CC(C)C)NC(=O)[C@H](CC(=O)O)NC1=O)NC(=O)[C@H](CC(C)(C)C)NC(=O)[C@H](CC(=O)O)NC2=O` (stereo partly drawn) [I-869, Ac-PL3-Asp-Npg-B5-Asp-Leu-[FAM6Ppg][p1TB]Lys-Ala-Phe-Phe-PyrS2-3Thi-BztA-Gln-NH2], the logD in “CHI Log D procedure” was 1.91. Further, the “Solubility” value in “Solubility in PBS” was found to be 10 µM (≈ 25.6 µg/mL).
`CC(=O)N1CCC[C@]12CC=CCCCC1(CCCC=CCCCOC(=O)N3CC[C@@](C(=O)N[C@@H](Cc4ccsc4)C(=O)N[C@@H](Cc4csc5ccccc45)C(=O)N[C@@H](CCC(N)=O)C(=O)N[C@@H](C)C(=O)N[C@@H](C)C(=O)N[C@@H](C)C(N)=O)(C3)NC(=O)[C@H](CC(N)=O)NC(=O)[C@H](Cc3ccccc3)NC(=O)[C@H](C)NC(=O)[C@H](C)NC(=O)[C@H](CC(=O)O)NC(=O)[C@H](CC(=O)O)NC1=O)NC(=O)[C@H](CC(C)(C)C)NC(=O)[C@H](CC(=O)O)NC2=O` (stereo partly drawn) [I-870, Ac-PL3-Asp-Npg-B5-Asp-Asp-Ala-Ala-Phe-Asn-PyrS2-3Thi-BztA-Gln-Ala-Ala] showed a pH-dependent lipophilicity (logD) in “CHI Log D procedure” of 1.99. This compound also returned a Solubility in “Solubility in PBS” (Solubility (uM)) of 47 µM (≈ 100 µg/mL).
Regarding `CC(=O)N1CCC[C@]12CC=CCCCC1(CCCC=CCCCOC(=O)N3CC[C@@](C(=O)N[C@@H](Cc4ccsc4)C(=O)N[C@@H](Cc4csc5ccccc45)C(=O)N[C@@H](CCC(N)=O)C(=O)N[C@H](C)C(=O)N[C@@H](C)C(=O)N[C@@H](C)C(N)=O)(C3)NC(=O)[C@H](CC(N)=O)NC(=O)[C@H](Cc3ccccc3)NC(=O)[C@H](C)NC(=O)[C@H](C)NC(=O)[C@H](CC(=O)O)NC(=O)[C@H](CC(=O)O)NC1=O)NC(=O)[C@H](CC(C)(C)C)NC(=O)[C@H](CC(=O)O)NC2=O` (stereo partly drawn) [I-871, Ac-PL3-Asp-Npg-B5-Asp-Asp-Ala-Ala-Phe-Asn-PyrS2-3Thi-BztA-Gln-dAla-Ala], the logD in the data set “CHI Log D procedure” was 1.92. This compound also had a Solubility in “Solubility in PBS” (Solubility (uM)) of 45 µM (≈ 95.9 µg/mL).
Compound `CC(=O)N1CCC[C@]12CC=CCCCC1(CCCC=CCCCOC(=O)N3CC[C@@](C(=O)N[C@@H](Cc4ccsc4)C(=O)N[C@@H](Cc4csc5ccccc45)C(=O)N[C@@H](CCC(N)=O)C(=O)N[C@H](C)C(=O)N[C@H](C)C(=O)N[C@H](C)C(N)=O)(C3)NC(=O)[C@H](CC(N)=O)NC(=O)[C@H](Cc3ccccc3)NC(=O)[C@H](C)NC(=O)[C@H](C)NC(=O)[C@H](CC(=O)O)NC(=O)[C@H](CC(=O)O)NC1=O)NC(=O)[C@H](CC(C)(C)C)NC(=O)[C@H](CC(=O)O)NC2=O` (stereo partly drawn) [I-872, Ac-PL3-Asp-Npg-B5-Asp-Asp-Ala-Ala-Phe-Asn-PyrS2-3Thi-BztA-Gln-dAla-dAla] had a pH-dependent lipophilicity (logD) in the data set “CHI Log D procedure” of 1.89. Also, in the data set “Solubility in PBS”, the “Solubility” value was 50 µM (≈ 107 µg/mL).
On to `CC(=O)N1CCC[C@]12CC=CCCCC1(CCCC=CCCCOC(=O)N3CC[C@@](C(=O)N[C@@H](Cc4ccsc4)C(=O)N[C@@H](Cc4csc5ccccc45)C(=O)N[C@@H](CCC(N)=O)C(=O)N[C@@H](C)C(=O)N[C@@H](C)C(=O)N[C@H](C)C(N)=O)(C3)NC(=O)[C@H](CC(N)=O)NC(=O)[C@H](Cc3ccccc3)NC(=O)[C@H](C)NC(=O)[C@H](C)NC(=O)[C@H](CC(=O)O)NC(=O)[C@H](CC(=O)O)NC1=O)NC(=O)[C@H](CC(C)(C)C)NC(=O)[C@H](CC(=O)O)NC2=O` (stereo partly drawn) [I-873, Ac-PL3-Asp-Npg-B5-Asp-Asp-Ala-Ala-Phe-Asn-PyrS2-3Thi-BztA-Gln-Ala-Ala], for which the logD in the data set “CHI Log D procedure” was 2. In the data set “Solubility in PBS” (Solubility (uM)), the Solubility was 47 µM (≈ 100 µg/mL).
`CC(=O)N1CCC[C@]12CC=CCCCC1(CCCC=CCCCCCC[C@@](C)(C(=O)N[C@@H](Cc3ccsc3)C(=O)N[C@@H](Cc3csc4ccccc34)C(=O)N[C@@H](CCC(N)=O)C(=O)N[C@@H](C)C(=O)N[C@@H](C)C(=O)N[C@@H](C)C(N)=O)NC(=O)[C@H](CC(N)=O)NC(=O)[C@H](Cc3ccccc3)NC(=O)[C@H](C)NC(=O)[C@H](C)NC(=O)[C@H](CC(=O)O)NC(=O)[C@H](CC(=O)O)NC1=O)NC(=O)[C@H](CC(C)(C)C)NC(=O)[C@H](CC(=O)O)NC2=O` (stereo partly drawn) [I-874, Ac-PL3-Asp-Npg-B5-Asp-Asp-Ala-Ala-Phe-Asn-S8-3Thi-BztA-Gln-Ala-Ala] had a logD in the data set “CHI Log D procedure” of 2.31. For the same compound, in “Solubility in PBS”, the “Solubility” value turned out to be 50 µM (≈ 104 µg/mL).
Consider `CC(=O)N1CCC[C@]12CC=CCCCC1(CCCC=CCCCCCC[C@@](C)(C(=O)N[C@@H](Cc3ccsc3)C(=O)N[C@@H](Cc3csc4ccccc34)C(=O)N[C@@H](CCC(N)=O)C(=O)N[C@H](C)C(=O)N[C@H](C)C(=O)N[C@H](C)C(N)=O)NC(=O)[C@H](CC(N)=O)NC(=O)[C@H](Cc3ccccc3)NC(=O)[C@H](C)NC(=O)[C@H](C)NC(=O)[C@H](CC(=O)O)NC(=O)[C@H](CC(=O)O)NC1=O)NC(=O)[C@H](CC(C)(C)C)NC(=O)[C@H](CC(=O)O)NC2=O` (stereo partly drawn) [I-876, Ac-PL3-Asp-Npg-B5-Asp-Asp-Ala-Ala-Phe-Asn-S8-3Thi-BztA-Gln-dAla-dAla], for which the logD in “CHI Log D procedure” was 2.26. For the same compound, in the data set “Solubility in PBS”, the “Solubility” value was found to be 50 µM (≈ 104 µg/mL).
`CC(=O)N1CCC[C@]12CC=CCCCC1(CCCC=CCCCCCC[C@@](C)(C(=O)N[C@@H](Cc3ccsc3)C(=O)N[C@@H](Cc3csc4ccccc34)C(=O)N[C@@H](CCC(N)=O)C(=O)N[C@@H](C)C(=O)N[C@@H](C)C(=O)N[C@H](C)C(N)=O)NC(=O)[C@H](CC(N)=O)NC(=O)[C@H](Cc3ccccc3)NC(=O)[C@H](C)NC(=O)[C@H](C)NC(=O)[C@H](CC(=O)O)NC(=O)[C@H](CC(=O)O)NC1=O)NC(=O)[C@H](CC(C)(C)C)NC(=O)[C@H](CC(=O)O)NC2=O` (stereo partly drawn) [I-877, Ac-PL3-Asp-Npg-B5-Asp-Asp-Ala-Ala-Phe-Asn-S8-3Thi-BztA-Gln-Ala-Ala] displayed a pH-dependent lipophilicity (logD) in the data set “CHI Log D procedure” of 2.35. Besides, in “Solubility in PBS”, the “Solubility” value came to 50 µM (≈ 104 µg/mL).
For the compound `COCCOCCC(=O)NCCCC[C@@H]1NC(=O)[C@H](C)NC(=O)[C@H](CC(=O)O)NC(=O)[C@H](CC(=O)O)NC(=O)C2(CCCC=CCCCOC(=O)N3CC[C@@](C(=O)N[C@@H](Cc4ccsc4)C(=O)N[C@@H](Cc4csc5ccccc45)C(=O)N[C@@H](CCC(N)=O)C(N)=O)(C3)NC(=O)[C@H](CC(N)=O)NC(=O)[C@H](Cc3ccccc3)NC1=O)CCCC=CC[C@]1(CCCN1C(C)=O)C(=O)N[C@@H](CC(=O)O)C(=O)N[C@@H](CC(C)(C)C)C(=O)N2` (stereo partly drawn) [I-892, Ac-PL3-Asp-Npg-B5-Asp-Asp-Ala-[mPEG2]Lys-Phe-Asn-PyrS2-3Thi-BztA-Gln-NH2], in the data set “CHI Log D procedure”, the “CHI Log D” value came out at 1.475. Besides, the “Solubility” value in the data set “Solubility in PBS” was 33 µM (≈ 69.5 µg/mL).
